Experimental data taken from patent US20140350285A1, “NOVEL POLYMORPHS OF N-[2-AMINO-4-(4-FLUOROBENZYLAMINO)-PHENYL] CARBAMIC ACID ETHYL ESTER AND PROCESSES THEREOF” (SYMED LABS LIMITED, priority 2012, published 2014).
Values after ≈ are worked out from the molar mass of the structure shown.

Key:
[1] = Polymorphic stability on storage, analysed by XRPD; type: physicochemical; settings: stored at 25° C.±2° C., about 70% RH (result sentence: about 76% RH), 6 weeks
[2] = Comparative solubility profile of crystalline forms in diluents
[3] = Chemical and polymorphic stability under stability testing conditions; type: physicochemical; settings: 25±2° C. and 75% RH, inert atmosphere
[4] = diluent: Solvent Methylene chloride

Structure (SMILES) | Polymorphic stability (XRPD) [1] | Solubility profile compared to known polymorphs (crystalline modifications A, B, and C) [2] | Solubility ([2]; diluent: Solvent Acetone) | Solubility ([2]; diluent: Solvent Alcohol (96%)) | Solubility ([2]; diluent: Solvent DMSO) | Solubility [2, 4] | Solubility ([2]; diluent: Water) | Solubility ([2]; diluent: pH Buffer 1.2 pH) | Solubility ([2]; diluent: pH Buffer 4.5 pH) | Solubility ([2]; diluent: pH Buffer 8.5 pH) | Chemical and polymorphic stability [3] | Solubility ([2]; DMSO, organic solvent or mixture, Solubility, diluent: Solvent DMSO) | Solubility ([2]; acetone, organic solvent or mixture, Solubility, diluent: Solvent Acetone) | Solubility ([2]; alcohol (96%), organic solvent or mixture, Solubility, diluent: Solvent Alcohol (96%)) | Solubility ([2]; methylene chloride, organic solvent or mixture, Solubility, diluent: Solvent Methylene chloride) | Solubility ([2]; pH buffer, pH 1.2, simulated gastric fluid, Solubility, diluent: pH Buffer 1.2 pH) | Solubility ([2]; pH buffer, pH 4.5, aqueous buffer, Solubility, diluent: pH Buffer 4.5 pH) | Solubility ([2]; pH buffer, pH 8.5, aqueous buffer, Solubility, diluent: pH Buffer 8.5 pH) | Solubility ([2]; water, Solubility, diluent: Water)
CCOC(=O)Nc1ccc(NCc2ccc(F)cc2)cc1N [Form-I, N-[2-amino-4-(4-fluorobenzylamino)-phenyl]carbamic acid ethyl ester] | polymorphically stable | better solubility profile | 290 mg/mL (≈ 956 mM) | 25 mg/mL (≈ 82.4 mM) | 700 mg/mL (≈ 2310 mM) | 40 mg/mL (≈ 132 mM) | <0.1 mg/mL | 10 mg/mL (≈ 33 mM) | <0.1 mg/mL | <0.1 mg/mL | substantially stable chemically and polymorphically |  |  |  |  |  |  |  | 
CCOC(=O)Nc1ccc(NCc2ccc(F)cc2)cc1N [Form-II, N-[2-amino-4-(4-fluorobenzylamino)-phenyl]carbamic acid ethyl ester] | polymorphically stable | better solubility profile | 250 mg/mL (≈ 824 mM) | 24 mg/mL (≈ 79.1 mM) | 700 mg/mL (≈ 2310 mM) | 70 mg/mL (≈ 231 mM) | <0.1 mg/mL | 10 mg/mL (≈ 33 mM) | <0.1 mg/mL | <0.1 mg/mL | substantially stable chemically and polymorphically |  |  |  |  |  |  |  | 
CCOC(=O)Nc1ccc(NCc2ccc(F)cc2)cc1N [Modification-A, N-[2-amino-4-(4-fluorobenzylamino)-phenyl]carbamic acid ethyl ester] |  |  | 280 mg/mL (≈ 923 mM) | 23 mg/mL (≈ 75.8 mM) | 800 mg/mL (≈ 2640 mM) | 50 mg/mL (≈ 165 mM) | <0.1 mg/mL | 13 mg/mL (≈ 42.9 mM) | <0.1 mg/mL | <0.1 mg/mL |  |  |  |  |  |  |  |  | 
CCOC(=O)Nc1ccc(NCc2ccc(F)cc2)cc1N [Modification-B, N-[2-amino-4-(4-fluorobenzylamino)-phenyl]carbamic acid ethyl ester] |  |  | 280 mg/mL (≈ 923 mM) | 22 mg/mL (≈ 72.5 mM) | 700 mg/mL (≈ 2310 mM) | 80 mg/mL (≈ 264 mM) | <0.1 mg/mL | 10 mg/mL (≈ 33 mM) | <0.1 mg/mL | <0.1 mg/mL |  |  |  |  |  |  |  |  | 
CCOC(=O)Nc1ccc(NCc2ccc(F)cc2)cc1N [Modification-C, N-[2-amino-4-(4-fluorobenzylamino)-phenyl]carbamic acid ethyl ester] |  |  |  |  |  |  |  |  |  |  |  | 700 mg/mL (≈ 2310 mM) | 310 mg/mL (≈ 1020 mM) | 16 mg/mL (≈ 52.7 mM) | 50 mg/mL (≈ 165 mM) | 11 mg/mL (≈ 36.3 mM) | < 0.1 mg/mL | < 0.1 mg/mL | < 0.1 mg/mL
